# Legend:
# Settings in all cases: 25 µM pACP, 24 h, maintenance medium 1% FBS, ratio of viability to vehicle (PBS), at least three technical repetitions
# T47D = assay: MTT primary screening of anticancer activity, T47D; format: cell-based
# Source text: (§1) We successfully chemically synthesized 40 pACPs for the purpose of in vitro or in vivo characterization of their potential anticancer efficacy. In the initial step, we conducted an in vitro primary screen of these 40 pACPs using a panel of 16 different cancer cell lines, including four human CRC lines (HT29, Caco2, HCT116, and […]), as well as 12 other cancer models (Table S4, Supporting Information). We deliberately selected a diverse panel of cell lines to assess the effect of pACPs across various genetic backgrounds. Briefly, the cancer cells were cultured in specific media (details provided in the Experimental Section) and then treated with pACPs at a final concentration of 25 µM. Peptides with minimum effective inhibition concentrations >25 µM were considered non‐ACPs. After exposure to pACPs, the survival rate of the cancer cells was measured using the MTT assay. Remarkably, 39 out of the 40 pACPs (97.5%) induced at least 20% inhibition in at least one cell line (Figure 3a and Table S5, Supporting Information). […] Thus, our method successfully identified pACPs with a very high rate of anticancer effects across various cancer cell lines.
# (§2) To evaluate the activity of the 40 potentially effective pACPs, a panel of 16 cancer cell lines was treated, including human CRC cell lines (HT29, Caco‐2, HCT116). Details of the cell lines used, respective media, and culture conditions were presented in Table S1 (Supporting Information). Once the cells reached 60% confluence, it was incubated with each candidate peptide at a concentration of 25 µM pACPs for 24 h. Concurrently, the complete medium was replaced with a maintenance medium containing only 1% FBS. Subsequently, the viability of each cell line using the MTT Cell Proliferation and Cytotoxicity Assay Kit according to the manufacturer's instructions was assessed. […] For the CRC cell line CT26, it was calculated the CC50 value using two peptides (pACP1780 and pACP2283) with relevant data presented in Table S6 (Supporting Information). The calculation was performed using an online tool: https://www.aatbio.com/tools/ic50‐calculator.
# EFM192A = assay: MTT primary screening of anticancer activity, EFM192A; format: cell-based
# Source text: as §1, §2
# MDA-MB-231 = assay: MTT primary screening of anticancer activity, MDA-MB-231; format: cell-based
# Source text: as §1, §2
# HT29 = assay: MTT primary screening of anticancer activity, HT29; format: cell-based, Human
# Source text: as §1, §2
# MCF7 = assay: MTT primary screening of anticancer activity, MCF7; format: cell-based
# Source text: as §1, §2
# BT474 = assay: MTT primary screening of anticancer activity, BT474; format: cell-based
# Source text: as §1, §2
# Caco2 = assay: MTT primary screening of anticancer activity, Caco2; format: cell-based, Human
# Source text: as §1, §2
# MDA-MB-468 = assay: MTT primary screening of anticancer activity, MDA-MB-468; format: cell-based
# Source text: as §1, §2
# HCT116 = assay: MTT primary screening of anticancer activity, HCT116; format: cell-based, Human
# Source text: as §1, §2
# CT26 = assay: MTT primary screening of anticancer activity, CT26; format: cell-based, Murine
# Source text: as §1, §2
# Hela = assay: MTT primary screening of anticancer activity, Hela; format: cell-based, Human
# Source text: as §1, §2
# MDA-MB-453 = assay: MTT primary screening of anticancer activity, MDA-MB-453; format: cell-based
# Source text: as §1, §2
# SK-BR-3 = assay: MTT primary screening of anticancer activity, SK-BR-3; format: cell-based
# Source text: as §1, §2
# MDA-MB-436 = assay: MTT primary screening of anticancer activity, MDA-MB-436; format: cell-based
# Source text: as §1, §2
# B16 = assay: MTT primary screening of anticancer activity, B16; format: cell-based, Mouse
# Source text: as §1, §2
# LCC = assay: MTT primary screening of anticancer activity, LCC; format: cell-based
# Source text: as §1, §2
Sequence,Survival rate of cancer cells in primary screening (T47D),Survival rate of cancer cells in primary screening (EFM192A),Survival rate of cancer cells in primary screening (MDA-MB-231),Survival rate of cancer cells in primary screening (HT29),Survival rate of cancer cells in primary screening (MCF7),Survival rate of cancer cells in primary screening (BT474),Survival rate of cancer cells in primary screening (Caco2),Survival rate of cancer cells in primary screening (MDA-MB-468),Survival rate of cancer cells in primary screening (HCT116),Survival rate of cancer cells in primary screening (CT26),Survival rate of cancer cells in primary screening (Hela),Survival rate of cancer cells in primary screening (MDA-MB-453),Survival rate of cancer cells in primary screening (SK-BR-3),Survival rate of cancer cells in primary screening (MDA-MB-436),Survival rate of cancer cells in primary screening (B16),Survival rate of cancer cells in primary screening (LCC)
NLTPPSRRATSPIFCVAKHRGGVCECPTIPQGIGEGVKGHSPFEVEG [pACP1349],0.62,1.00,1.00,1.00,1.00,1.00,1.00,1.00,1.00,1.00,1.00,1.00,1.00,1.00,0.66,1.00
DRGERVAHGLDLLDGVVAEGVAAKGDDNTIGLAKRLRHCWNPFCKRPTTH [pACP253],0.70,1.00,1.00,1.00,1.00,1.00,1.00,0.76,1.00,1.00,1.00,1.00,1.00,1.00,1.00,1.00
CRLCTHGNVSACVLGKNAVFSVSAHNSDCPQPTCDFSSPLEECLESS [pACP177],0.59,1.00,1.00,1.00,1.00,1.00,1.00,1.00,1.00,1.00,1.00,1.00,1.00,1.00,0.73,1.00
GNPAKQEIKVPGALGKGSCVQSGAGVGPRCRVPCGPLSGGMALFCYE [pACP555],0.74,1.00,1.00,1.00,1.00,1.00,1.00,1.00,1.00,1.00,1.00,1.00,1.00,1.00,0.75,1.00
